Assay results reported in patent US12404261B2, “Compounds and compositions for treating conditions associated with cGAS” (Novartis AG, priority 2020, dated 2025).

Each compound was assayed against human truncated cGAS enzyme (147-522 human cGAS) (Homo sapiens (Human), UniProt Q8N884) (assay: Quantification of cGAS protein inhibition (cGAMP formation measured by LC-MS/MS)). Conditions: reported for the potential mixture in solution of co-existing tautomers and/or racemates.
Format: biochemical
Outline: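 Human cGAS 147-522 (30 nM) in Tris pH 7.5, NaCl, MgCl2, ZnCl2, Tween 20, started with 5 μM ISD 45 bp dsDNA, 0.5 mM GTP and 0.5 mM ATP. Incubated 1 h at room temperature, then quenched with acetonitrile/TFA. cGAMP quantified by LC-MS/MS against a labelled cGAMP internal standard; IC50 from ratio versus compound concentration.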

Sequence of human truncated cGAS enzyme (147-522 human cGAS) (Q8N884 147-522): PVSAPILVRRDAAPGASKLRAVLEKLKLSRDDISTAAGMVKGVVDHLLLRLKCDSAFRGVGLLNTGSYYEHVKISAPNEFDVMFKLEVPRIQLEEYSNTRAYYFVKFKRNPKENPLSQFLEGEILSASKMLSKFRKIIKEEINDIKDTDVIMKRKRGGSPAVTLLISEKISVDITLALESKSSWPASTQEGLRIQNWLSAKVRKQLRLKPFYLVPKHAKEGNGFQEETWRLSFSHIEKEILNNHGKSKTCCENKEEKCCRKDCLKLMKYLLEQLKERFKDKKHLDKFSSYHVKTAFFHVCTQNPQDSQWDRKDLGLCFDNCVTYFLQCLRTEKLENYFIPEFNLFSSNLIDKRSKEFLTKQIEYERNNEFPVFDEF

Question: Which IC50 does the source give for `COc1cc2c(-n3ccnc3)c(-c3nnc(C(=O)N(C)C)[nH]3)n(C)c2c(C#N)c1Cl` [Example 103, 5-(6-chloro-7-cyano-3-(1H-imidazol-1-yl)-5-methoxy-1-methyl-1H-indol-2-yl)-N,N-dimethyl-4H-1,2,4-triazole-3-carboxamide] here?
Answer: 171 nM

Question: How did the IC50 turn out when `FC(F)Oc1cc2c(-n3ccnc3)c(-c3nnc(C(F)(F)F)[nH]3)[nH]c2cc1Cl` [Example 112, 6-chloro-5-(difluoromethoxy)-3-(1H-imidazol-1-yl)-2-(5-(trifluoromethyl)-4H-1,2,4-triazol-3-yl)-1H-indole] was run?
Answer: 659 nM

Question: With `COCC(c1nnc(-c2c(-n3ccnc3)c3cc(OC)c(Cl)c(F)c3n2C)[nH]1)N(C)C` (racemic) [Example 124, 1-(5-(6-chloro-7-fluoro-3-(1H-imidazol-1-yl)-5-methoxy-1-methyl-1H-indol-2-yl)-4H-1,2,4-triazol-3-yl)-2-methoxy-N,N-dimethylethan-1-amine] as the compound, how does the IC50 read?
Answer: 122 nM

Question: How did the IC50 turn out when `COCC(c1nnc(-c2c(-n3ccnc3)c3cc(OC)c(Cl)c(F)c3n2C)[nH]1)N1CCOCC1` (stereo not shown) [Example 126, 4-(1-(5-(6-chloro-7-fluoro-3-(1H-imidazol-1-yl)-5-methoxy-1-methyl-1H-indol-2-yl)-4H-1,2,4-triazol-3-yl)-2-methoxyethyl)morpholine] was run?
Answer: 411 nM

Question: Which IC50 does the source give for `COCC(c1nnc(-c2c(-n3ccnc3)c3cc(OC)c(Cl)c(F)c3n2C)[nH]1)n1ccnc1` (stereo not shown) [Example 100, 2-(5-(1-(1H-imidazol-1-yl)-2-methoxyethyl)-4H-1,2,4-triazol-3-yl)-6-chloro-7-fluoro-3-(1H-imidazol-1-yl)-5-methoxy-1-methyl-1H-indole] here?
Answer: 65 nM

Question: `CNC(COC)c1nnc(-c2c(-n3ccnc3)c3cc(OC)c(Cl)c(F)c3n2C)[nH]1` (racemic) [Example 125, 1-(5-(6-chloro-7-fluoro-3-(1H-imidazol-1-yl)-5-methoxy-1-methyl-1H-indol-2-yl)-4H-1,2,4-triazol-3-yl)-2-methoxy-N-methylethan-1-amine] was tested. Which IC50 did it give?
Answer: 74 nM

Question: `COCC(c1nnc(-c2c(-n3ccnc3)c3cc(OC)c(Cl)c(F)c3n2C)[nH]1)N1CCC1` (stereo not shown) [Example 127, 2-(5-(1-(azetidin-1-yl)-2-methoxyethyl)-4H-1,2,4-triazol-3-yl)-6-chloro-7-fluoro-3-(1H-imidazol-1-yl)-5-methoxy-1-methyl-1H-indole] was tested. Which IC50 did it give?
Answer: 487 nM

Same assay, conditions: reported for the potential mixture of co-existing tautomers and/or racemates

Question: With `COCC(F)c1nnc(-c2[nH]c3c(Cl)c(Cl)ccc3c2-c2cn[nH]c2)[nH]1` (stereo not shown) [Example 10, 6,7-dichloro-2-(5-(1-fluoro-2-methoxyethyl)-4H-1,2,4-triazol-3-yl)-3-(1H-pyrazol-4-yl)-1H-indole] as the compound, how does the IC50 read?
Answer: 74 nM

Question: `N#Cc1nnc(-c2[nH]c3c(Cl)c(Cl)ccc3c2-c2cn[nH]c2)[nH]1` [Example 35, 5-(6,7-Dichloro-3-(1H-pyrazol-4-yl)-1H-indol-2-yl)-4H-1,2,4-triazole-3-carbonitrile] was tested. Which IC50 did it give?
Answer: 77 nM

Question: With `FC(F)(F)Cc1nnc(-c2[nH]c3c(Cl)c(Cl)ccc3c2-c2cn[nH]c2)[nH]1` [Example 13, 6,7-dichloro-3-(1H-pyrazol-4-yl)-2-(5-(2,2,2-trifluoroethyl)-4H-1,2,4-triazol-3-yl)-1H-indole] as the compound, how does the IC50 read?
Answer: 178 nM

Question: `COc1cc2c(-n3ccnc3)c(-c3nnc(C(=O)N4CCN(C)CC4)[nH]3)n(C)c2c(F)c1Cl` [Example 46, (5-(6-chloro-7-fluoro-3-(1H-imidazol-1-yl)-5-methoxy-1-methyl-1H-indol-2-yl)-4H-1,2,4-triazol-3-yl)(4-methylpiperazin-1-yl)methanone] was tested. Which IC50 did it give?
Answer: 138 nM

Question: `COc1cc2c(-n3ccnc3)c(-c3nnc(F)[nH]3)[nH]c2c(F)c1Cl` [Example 87, 6-chloro-7-fluoro-2-(5-fluoro-4H-1,2,4-triazol-3-yl)-3-(1H-imidazol-1-yl)-5-methoxy-1H-indole] was tested. Which IC50 did it give?
Answer: 43 nM

Question: Which IC50 does the source give for `Oc1cc(-c2c(-c3nnc(C(F)(F)F)[nH]3)[nH]c3c(Cl)c(Cl)ccc23)n[nH]1` [Example 76, 3-(6,7-dichloro-2-(5-(trifluoromethyl)-4H-1,2,4-triazol-3-yl)-1H-indol-3-yl)-1H-pyrazol-5-ol] here?
Answer: 4210 nM
